Laboratory results: patent EP3722296B1, “DIHYDRONAPHTHYRIDINES AND RELATED COMPOUNDS USEFUL AS KINASE INHIBITORS FOR THE TREATMENT OF PROLIFERATIVE DISEASES” (Deciphera Pharmaceuticals, LLC, priority 2012, dated 2013)

Columns and labels:
c-KIT V654A kinase = target: T1, c-KIT V654A kinase (Homo sapiens, UniProt P10721, V654A); assay: c-KIT V654A Kinase Assay; format: biochemical; details: enzymatic assay, ATP 200 µM
T1 construct: residues T544-V976 with N-terminal GST fusion; purchased deCODE Biostructures
Summary of the method: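 Construct: cKIT residues T544–V976 with N-terminal tag, GST fusion and TEV site. Reaction started by adding serially diluted compound to the enzyme mixture; NADH oxidation, coupled to kinase turnover, followed as the decrease in A340 for 6 h at 30 °C.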

c-KIT D816H kinase = target: T2, c-KIT D816H kinase (Homo sapiens, UniProt P10721, D816H); assay: c-KIT D816H Kinase Assay; format: biochemical; details: enzymatic assay, ATP 200 µM
T2 construct: The construct contains residues T544-V976 of cKit; GST (N); TEV cleavage site (internal); purchased deCODE Biostructures
Summary of the method: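 Coupled spectrophotometric assay following NADH oxidation as absorbance decrease at 340 nm, monitored continuously for 6 hours at 30 °C after adding serially diluted compound. Enzyme: mutant cKit construct with N-terminal tag, GST fusion and TEV cleavage site.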

c-KIT D816V kinase = target: T3, c-KIT D816V kinase (Homo sapiens, UniProt P10721, D816V); assay: c-KIT D816V kinase Assay; format: biochemical; details: enzymatic assay, ATP 200 uM
T3 construct: residues T544-V976 with N-terminal GST fusion; purchased deCODE Biostructures
Summary of the method: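 Coupled assay in which NADH oxidation was tracked as decreasing absorbance at 340 nm, continuously for 5 hours at 30 °C after adding serially diluted compound. Enzyme: cKit residues T544-V976 with N-terminal tag, GST fusion and TEV cleavage site.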

c-KIT T670I kinase = target: T4, c-KIT T670I kinase (Homo sapiens, UniProt P10721, T670I); assay: c-KIT T670I kinase assay; format: biochemical; details: enzymatic assay
T4 construct: The construct contains residues T544-V976 of cKit; GST (N); TEV cleavage site (internal); purchased deCODE Biostructures
Summary of the method: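 Coupled spectrophotometric assay following NADH oxidation as absorbance decrease at 340 nm, monitored continuously for 5 h at 30 °C after adding serially diluted compound. Enzyme is a cKit construct with N-terminal tag, GST fusion and TEV site, carrying the T670I mutation.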

Phospho-KIT (Tyr719) [1] = assay: GIST430 KIT Western Blot; format: cell-based; details: GIST430 cells, 4 hours, serum-free medium; read-out: pKIT suppression by western blot analysi GIST430
Description: (§1) GIST48, GIST430, and GIST882 cells were obtained from J. Fletcher (Brigham and Women's Hospital, Boston, MA). GIST T1 cells were obtained from B. Rubin (Cleveland Clinic, Cleveland, OH) and Professor Takahiro Taguchi (Kochi Medical School, Nankoku, Kochi, Japan). […] GIST430 cells were grown in Ham's F10 medium supplemented with 15% characterized fetal bovine serum (Invitrogen, Carlsbad, CA), 30 mg/L bovine pituitary extract (BD Biosciences, San Jose, CA), 0.5% Mito+ serum extender (BD Biosciences, San Jose, CA), 1 unit/mL penicillin G, 1 µg/ml streptomycin, and 0.29 mg/mL L-glutamine at 37 °C, 5%CO2, 95% humidity. GIST T1 cells were grown in DMEM medium supplemented with 10% characterized fetal bovine serum (Invitrogen, Carlsbad, CA), 1 unit/mL penicillin G, 1 µg/ml streptomycin, and 0.29 mg/mL L-glutamine at 37 °C, 5% CO2, and 95% humidity.
(§2) One hundred fifty thousand cells were added per well in a 24-well tissue-culture treated plate. […] Medium was aspirated, cells were washed with PBS, and serum-free Ham's F10 medium was added. […] Cells were washed with PBS, then lysed. Cell lysates were separated by SDS-PAGE and transferred to PVDF. Phospho-KIT (Tyr719) was detected using an antibody from Cell Signaling Technology (Beverly, MA), ECL Plus detection reagent (GE Healthcare, Piscataway, NJ) and a Molecular Devices Storm 840 phosphorimager in fluorescence mode. Blots were stripped and probed for total KIT using an antibody from Santa Cruz Biotech (Santa Cruz, CA). IC50 values were calculated using Prism software (Graphpad, San Diego, CA).

Phospho-KIT (Tyr719) [2] = assay: GIST48 KIT Western Blot; format: cell-based; details: GIST48 cells, 4 hours, serum-free medium; read-out: pKIT suppression by western blot analysi GIST48
Description: as §1
as §2, with “Two” for “One”, “RPMI1640” for “Ham's F10”

c-KIT kinase = c-KIT kinase (Homo sapiens, UniProt P10721); assay: c-KIT kinase Assay; format: biochemical; parameters: cKIT residues T544-V976; GST (N); TEV cleavage site (internal); purchased deCODE Biostructures; details: enzymatic assay, ATP 200 µM; read-out: KIT (wt) IC50
Summary of the method: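 Activity of wild-type human c-KIT kinase was followed as NADH oxidation, read as falling absorbance at 340 nm on a Synergy 2 plate reader (BioTeK) for 2 hours at 30 °C. Rates from the 0 to 1 h window were compared with an uninhibited control to give percent inhibition. IC50 values were fitted in GraphPad Prism across a range of inhibitor concentrations.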

GIST T1 cells = assay: GIST T1 Cell Proliferation Assay; format: cell-based; details: Homo sapiens, GISTT1, 72 h, 68 hours + 4 hours resazurin
Description: GIST48, GIST430, and GIST882 cells were obtained from J. Fletcher (Brigham and Women's Hospital, Boston, MA). GIST T1 cells were obtained from B. Rubin (Cleveland Clinic, Cleveland, OH) and Professor Takahiro Taguchi (Kochi Medical School, Nankoku, Kochi, Japan). Briefly, GIST48 and GIST 882 cells were grown in RPMI 1640 medium supplemented with 15% characterized fetal bovine serum (Invitrogen, Carlsbad, CA), 1 unit/mL penicillin G, 1 µg/ml streptomycin, and 0.29 mg/mL L-glutamine at 37 °C, 5% CO2, and 95% humidity. GIST430 cells were grown in Ham's F10 medium supplemented with 15% characterized fetal bovine serum (Invitrogen, Carlsbad, CA), 30 mg/L bovine pituitary extract (BD Biosciences, San Jose, CA), 0.5% Mito+ serum extender (BD Biosciences, San Jose, CA), 1 unit/mL penicillin G, 1 µg/ml streptomycin, and 0.29 mg/mL L-glutamine at 37 °C, 5%CO2, 95% humidity. GIST T1 cells were grown in DMEM medium supplemented with 10% characterized fetal bovine serum (Invitrogen, Carlsbad, CA), 1 unit/mL penicillin G, 1 µg/ml streptomycin, and 0.29 mg/mL L-glutamine at 37 °C, 5% CO2, and 95% humidity.
A serial dilution of test compound was dispensed into a 384-well black clear bottom plate (Corning, Corning, NY). One thousand two-hundred fifty cells were added per well in 50 µL complete growth medium. Plates were incubated for 68 hours at 37 °C, 5% CO2, 95% humidity. At the end of the incubation period 10 µL of a 440 µM solution of resazurin (Sigma, St. Louis, MO) in PBS was added to each well and incubated for an additional 4 hours at 37 °C, 5% CO2, 95% humidity. Plates were read on a Synergy2 reader (Biotek, Winooski, VT) using an excitation of 540 nm and an emission of 600 nm.

T4 sequence (P10721 544-976 T670I): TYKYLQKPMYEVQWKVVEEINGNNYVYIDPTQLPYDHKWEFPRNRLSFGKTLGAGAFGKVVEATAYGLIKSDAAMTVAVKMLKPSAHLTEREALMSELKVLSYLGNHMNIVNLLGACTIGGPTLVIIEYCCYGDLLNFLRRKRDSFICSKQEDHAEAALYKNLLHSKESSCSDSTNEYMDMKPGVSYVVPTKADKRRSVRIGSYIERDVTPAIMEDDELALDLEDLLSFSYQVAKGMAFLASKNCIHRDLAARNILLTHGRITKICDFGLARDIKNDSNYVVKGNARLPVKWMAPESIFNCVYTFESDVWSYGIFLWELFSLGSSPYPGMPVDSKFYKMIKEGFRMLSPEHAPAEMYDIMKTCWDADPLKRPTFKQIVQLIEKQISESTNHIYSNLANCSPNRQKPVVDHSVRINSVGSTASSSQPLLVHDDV
T3 sequence (P10721 544-976 D816V): as the sequence (P10721 544-976 T670I) above, with I127T, D273V counted along it
Chain of c-KIT kinase (P10721 544-976): as the sequence (P10721 544-976 T670I) above, with I127T counted along it
T1 sequence (P10721 544-976 V654A): as the sequence (P10721 544-976 T670I) above, with V111A, I127T counted along it
T2 sequence (P10721 544-976 D816H): as the sequence (P10721 544-976 T670I) above, with I127T, D273H counted along it

IC50 (c-KIT V654A kinase) [µM] | IC50 (c-KIT D816H kinase) [µM] | IC50 (c-KIT D816V kinase) [µM] | IC50 (c-KIT T670I kinase) [µM] | IC50 (Phospho-KIT (Tyr719) [1]) [µM] | IC50 (Phospho-KIT (Tyr719) [2]) [µM] | IC50 (c-KIT kinase) [µM] | Structure (SMILES) | IC50 (GIST T1 cells) [µM]
0.1 to 1 | 0.01 to 0.1 | 0.01 to 0.1 | 0.01 to 0.1 | 0.01 to 0.1 | 0.1 to 1 | 0.01 to 0.1 | CCn1c(=O)c(-c2cc(NC(=O)Nc3cc(F)cc(F)c3)c(F)cc2C)cc2cnc(NC(=O)N(C)C)cc21 [Example 108, 3-(3-(5-(3-(3,5-difluorophenyl)ureido)-4-fluoro-2-methylphenyl)-1-ethyl-2-oxo-1,2-dihydro-1,6-naphthyridin-7-yl)-1,1-dimethylurea] | –
– | – | – | – | 0.01 to 0.1 | 0.01 to 0.1 | – | CCn1c(=O)c(-c2cc(NC(=O)Nc3cccc(Cl)c3)c(F)cc2F)cc2cnc(NC)cc21 [Example 17, 1-(3-chlorophenyl)-3-(5-(1-ethyl-7-(methylamino)-2-oxo-1,2-dihydro-1,6-naphthyridin-3-yl)-2,4-difluorophenyl)urea] | –
– | – | – | – | 0.01 to 0.1 | 0.1 to 1 | – | CCn1c(=O)c(-c2cc(NC(=O)Nc3ccccc3)c(F)cc2Cl)cc2cnc(NCCCN(C)C)cc21 [Example 30, 1-(4-chloro-5-(7-(3-(dimethylamino)propylamino)-1-ethyl-2-oxo-1,2-dihydro-1,6-naphthyridin-3-yl)-2-fluorophenyl)-3-phenylurea] | –
– | – | – | – | 0.01 to 0.1 | 0.01 to 0.1 | – | CCn1c(=O)c(-c2cc(NC(=O)Nc3cccc(CN4CCN(C)CC4)c3)c(F)cc2Cl)cc2cnc(NC)cc21 [Example 79, 1-(4-chloro-5-(1-ethyl-7-(methylamino)-2-oxo-1,2-dihydro-1,6-naphthyridin-3-yl)-2-fluorophenyl)-3-(3-((4-methylpiperazin-1-yl)methyl)phenyl)urea] | < 0.01
< 0.01 | – | 0.01 to 0.1 | 0.01 to 0.1 | 0.01 to 0.1 | 0.1 to 1 | < 0.01 | CCn1c(=O)c(-c2cc(NC(=O)Nc3cc(F)cc(F)c3)c(F)cc2F)cc2cnc(NC)cc21 [Example 63, 1-(3,5-difluorophenyl)-3-(5-(1-ethyl-7-(methylamino)-2-oxo-1,2-dihydro-1,6-naphthyridin-3-yl)-2,4-difluorophenyl)urea] | < 0.01
– | – | – | – | < 0.01 | 0.1 to 1 | – | CCn1c(=O)c(-c2cc(NC(=O)Nc3ccccc3)c(F)cc2Br)cc2cnc(NC(C)=O)cc21 [Example 53, 1-(5-(7-acetamido-1-ethyl-2-oxo-1,2-dihydro-1,6-naphthyridin-3-yl)-4-bromo-2-fluorophenyl)-3-phenylurea] | < 0.01
– | – | – | – | < 0.01 | 0.01 to 0.1 | – | CCn1c(=O)c(-c2cc(NC(=O)Nc3ccccc3)c(F)cc2Cl)cc2cnc(N)cc21 [Example 21, 1-(5-(7-amino-1-ethyl-2-oxo-1,2-dihydro-1,6-naphthyridin-3-yl)-4-chloro-2-fluorophenyl)-3-phenylurea] | < 0.01
– | – | – | – | 0.01 to 0.1 | 0.1 to 1 | – | CCn1c(=O)c(-c2cc(NC(=O)Nc3ccccc3)c(F)cc2F)cc2cnc(NC(C)=O)cc21 [Example 66, 1-(5-(7-acetamido-1-ethyl-2-oxo-1,2-dihydro-1,6-naphthyridin-3-yl)-2,4-difluorophenyl)-3-phenylurea] | < 0.01
– | – | – | – | 0.01 to 0.1 | 0.01 to 0.1 | – | CCn1c(=O)c(-c2cc(NC(=O)Nc3cc(F)cc(CN4CCN(C)CC4)c3)c(F)cc2Cl)cc2cnc(NC)cc21 [Example 88, 1-(4-chloro-5-(1-ethyl-7-(methylamino)-2-oxo-1,2-dihydro-1,6-naphthyridin-3-yl)-2-fluorophenyl)-3-(3-fluoro-5-((4-methylpiperazin-1-yl)methyl)phenyl)urea] | < 0.01
0.01 to 0.1 | < 0.01 | 0.01 to 0.1 | > 1 | 0.01 to 0.1 | 0.1 to 1 | < 0.01 | CNc1cc2c(cn1)cc(-c1cc(NC(=O)Nc3cccc(F)c3)c(F)cc1C)c(=O)n2C(C)C [Example 41, 1-(2-fluoro-5-(1-isopropyl-7-(methylamino)-2-oxo-1,2-dihydro-1,6-naphthyridin-3-yl)-4-methylphenyl)-3-(3-fluorophenyl)urea] | –
0.01 to 0.1 | – | 0.01 to 0.1 | 0.01 to 0.1 | 0.01 to 0.1 | 0.1 to 1 | < 0.01 | CCn1c(=O)c(-c2cc(NC(=O)Nc3cc(F)ccc3F)c(F)cc2Cl)cc2cnc(NC)cc21 [Example 68, 1-(4-chloro-5-(1-ethyl-7-(methylamino)-2-oxo-1,2-dihydro-1,6-naphthyridin-3-yl)-2-fluorophenyl)-3-(2,5-difluorophenyl)urea] | < 0.01
